Assay results from US10294202B2, “Pyrrolidinones as herbicides” (FMC Corporation, priority 2013, dated 2019).

Experiments:
blackgrass [1] = test: Test A postemergence herbicide test; assay type: in vivo, Alopecurus myosuroides
Summary of the method: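 Potted in loam soil/sand blend; postemergence application at 1–2 leaf stage (2–10 cm). Greenhouse ~10 d. Visual injury vs untreated, 0–100 scale; 100 = complete control.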

blackgrass [2] = test: Test C pre-/postemergence herbicide test; assay type: in vivo, Alopecurus myosuroides
Summary of the method: (§1)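 Test compounds, formulated in a surfactant-containing non-phytotoxic solvent blend, are applied to seeded loam/sand soil (preemergence) and to young plants at the 1- to 4-leaf stage in peat-based medium (postemergence). Plants stay 13 to 15 days under greenhouse conditions, then are scored visually relative to controls, 0 = no effect, 100 = complete control.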

galium = test: Test C pre-/postemergence herbicide test; assay type: in vivo, Galium aparine
Summary of the method: as §1

foxtail, giant = test: Test C pre-/postemergence herbicide test; assay type: in vivo, Setaria faberii
Summary of the method: as §1

barnyardgrass = test: Test C pre-/postemergence herbicide test; assay type: in vivo, Echinochloa crus-galli
Summary of the method: as §1

kochia = test: Test C pre-/postemergence herbicide test; assay type: in vivo, Kochia scoparia; conditions: Postemergence
Summary of the method: as §1

velvetleaf = test: Test C pre-/postemergence herbicide test; assay type: in vivo, Abutilon theophrasti
Summary of the method: as §1

rice = test: Test C flooded paddy test; assay type: in vivo, Oryza sativa; conditions: Flood, scale of 0 to 100 where 0 is no effect and 100 is complete control, 13 to 15 days
Summary of the method: (§2)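 2-leaf stage; flood 3 cm over soil; compound into paddy water; depth held; greenhouse 13–15 d; visual % control vs untreated (0 = none, 100 = complete); "-" = not tested.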

sedge, umbrella = test: Test C flooded paddy test; assay type: in vivo, Cyperus difformis; conditions: Flood, scale of 0 to 100 where 0 is no effect and 100 is complete control, 13 to 15 days
Summary of the method: as §2

[3] = Postemergence, 31 g ai/ha, scale 0 to 100 (0 no effect, 100 complete control)
[4] = Postemergence, 62 g ai/ha, scale 0 (no effect) to 100 (complete control)
[5] = Postemergence, 125 g ai/ha, scale 0 to 100 (0 no effect, 100 complete control)
[6] = Postemergence, 250 g ai/ha, scale 0 to 100 (0 no effect, 100 complete control)
[7] = Preemergence, 31 g ai/ha, scale 0 to 100, 0 is no effect and 100 is complete control
[8] = Preemergence, 62 g ai/ha, scale 0 to 100
[9] = Preemergence, 125 g ai/ha, scale 0 to 100 (0 no effect, 100 complete control)
[10] = Preemergence, 62 g ai/ha, scale 0 to 100 (0 no effect, 100 complete control)

O=C1NCC(c2cccc(OC(F)F)c2)C1C(=O)Nc1cccc(F)c1F (stereo not drawn) [Compound 224]
Plant response rating, Blackgrass (blackgrass [1]; 125 g ai/ha, 0 to 100 scale, 0 is no effect, 100 is complete control): 60 | Blackgrass plant response rating (0 to 100 scale, 0 is no effect, 100 is complete control) (blackgrass [1]; 500 g ai/ha): 70 | Plant response rating, Blackgrass (blackgrass [2]; [3]): 0 | Plant response rating, Blackgrass (blackgrass [2]; [4]): 0 | Plant response rating, Blackgrass (blackgrass [2]; [5]): 0 | Plant response rating, Blackgrass (blackgrass [2]; [6]): 0 | Blackgrass plant response rating (blackgrass [2]; [7]): 0 | Plant response rating, Blackgrass (blackgrass [2]; [8]): 65 | Plant response rating, Blackgrass (blackgrass [2]; [9]): 70 | Plant response rating (scale of 0 to 100), Blackgrass (blackgrass [2]; Preemergence, 250 g ai/ha): 85 | Plant response rating, Galium (galium; [3]): 5 | Plant response rating, Galium (galium; [4]): 45 | Plant response rating, Galium (galium; [5]): 60 | Plant response rating, Galium (galium; [6]): 85 | Galium plant response rating (galium; [7]): 0 | Galium plant response rating (galium; [10]): 40 | Plant response rating, Galium (galium; [9]): 85 | Plant response rating (scale of 0 to 100), Galium (galium; Preemergence, 250 g ai/ha): 85 | Plant response rating, Foxtail, Giant (foxtail, giant; [3]): 0 | Plant response rating, Foxtail, Giant (foxtail, giant; [4]): 0 | Plant response rating, Foxtail, Giant (foxtail, giant; [5]): 60 | Plant response rating, Foxtail, Giant (foxtail, giant; [6]): 35 | Foxtail, Giant plant response rating (foxtail, giant; [7]): 80 | Foxtail, Giant plant response rating (foxtail, giant; [10]): 90 | Plant response rating, Foxtail, Giant (foxtail, giant; [9]): 95 | Plant response rating (scale of 0 to 100), Foxtail, Giant (foxtail, giant; Preemergence, 250 g ai/ha): 98 | Plant response rating, Barnyardgrass (barnyardgrass; [3]): 0 | Plant response rating, Barnyardgrass (barnyardgrass; [4]): 30 | Plant response rating, Barnyardgrass (barnyardgrass; [5]): 50 | Plant response rating, Barnyardgrass (barnyardgrass; [6]): 75 | Barnyardgrass plant response rating (barnyardgrass; [7]): 75 | Plant response rating, Barnyardgrass (barnyardgrass; [8]): 85 | Plant response rating, Barnyardgrass (barnyardgrass; [9]): 90 | Plant response rating (scale of 0 to 100; 0 is no effect, 100 is complete control), Barnyardgrass (barnyardgrass; Preemergence, 250 g ai/ha): 95 | Plant response rating, Kochia (kochia; 31 g ai/ha, scale 0 to 100 (0 no effect, 100 complete control)): 0 | Plant response rating, Kochia (kochia; 62 g ai/ha, scale 0 (no effect) to 100 (complete control)): 40 | Plant response rating, Kochia (kochia; 125 g ai/ha, scale 0 to 100 (0 no effect, 100 complete control)): 50 | Plant response rating, Kochia (kochia; 250 g ai/ha, scale 0 to 100 (0 no effect, 100 complete control)): 70 | Plant response rating, Velvetleaf (velvetleaf; [3]): 0 | Plant response rating, Velvetleaf (velvetleaf; [4]): 0 | Plant response rating, Velvetleaf (velvetleaf; [5]): 25 | Plant response rating, Velvetleaf (velvetleaf; [6]): 35 | Velvetleaf plant response rating (velvetleaf; [7]): 0 | Velvetleaf plant response rating (velvetleaf; [10]): 5 | Plant response rating, Velvetleaf (velvetleaf; [9]): 45 | Plant response rating (scale of 0 to 100), Velvetleaf (velvetleaf; Preemergence, 250 g ai/ha): 40 | Plant response rating, Rice (rice; 31 g ai/ha): 0 | Plant response rating, Rice (rice; 62 g ai/ha): 0 | Plant response rating, Rice (rice; 125 g ai/ha): 0 | Plant response rating, Rice (rice; 250 g ai/ha): 20 | Plant response rating, Sedge, Umbrella (sedge, umbrella; 31 g ai/ha): 0 | Plant response rating, Sedge, Umbrella (sedge, umbrella; 62 g ai/ha): 0 | Plant response rating, Sedge, Umbrella (sedge, umbrella; 125 g ai/ha): 0 | Plant response rating, Sedge, Umbrella (sedge, umbrella; 250 g ai/ha): 0
